The source of these data is PubChem BioAssay (NCI).

Among the test systems are ACHN renal; M14 melanoma; MCF7 breast; MDA-MB-231 breast; OVCAR-3 ovarian; OVCAR-5 ovarian; PC-3 prostate; RPMI-8226 leukemia; SK-MEL-28 melanoma; SNB-19 CNS; SW-620 colon; U251 CNS.
Holding throughout (assay): NCI anticancer screen, dose series, 48 h

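1) Cells in 96-well plates. 2) Compound, 48 h, 5 concentrations. 3) Linear interpolation between surrounding doses. 4) Unreached endpoint = highest concentration. At the TGI there is no net growth.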

`CC(C)=CCC[C@H](C)[C@H]1CC[C@@H](C)c2cc(O)c(C)cc21`: the TGI came to 30.6 µM with ACHN renal; 33.9 µM in the experiment on M14 melanoma; 32.5 µM in the experiment with MCF7 breast; 34 µM with MDA-MB-231 breast; 35.3 µM in the experiment on OVCAR-3 ovarian; 30.7 µM in the experiment with OVCAR-5 ovarian. The TGI was determined as 31.3 µM in the experiment with PC-3 prostate; 56.2 µM with RPMI-8226 leukemia; 36.8 µM with SK-MEL-28 melanoma; 31.6 µM in the experiment on SNB-19 CNS; 56.6 µM with SW-620 colon; 31.1 µM with U251 CNS.
As for `CC1(C)OC(=S)N(c2ccccc2)C12C=Cc1cc3ccccc3cc1O2` (configuration not stated), the TGI in the experiment on ACHN renal, with M14 melanoma, in the experiment with MCF7 breast, with MDA-MB-231 breast, with OVCAR-3 ovarian and with OVCAR-5 ovarian was more than 100 µM each time. Besides, the TGI with PC-3 prostate, in the experiment with RPMI-8226 leukemia, in the experiment on SK-MEL-28 melanoma, in the experiment on SNB-19 CNS, with SW-620 colon and with U251 CNS was more than 100 µM each time.
Consider `Cn1cnc([N+](=O)[O-])c1Sc1nc(N)nc2c1ncn2Cc1ccccc1`, for which the TGI in the experiment with ACHN renal was 31.3 µM; with M14 melanoma, 69 µM; in the experiment on MCF7 breast it was more than 100 µM; with MDA-MB-231 breast, 41.3 µM; with OVCAR-3 ovarian, 9.97 µM; with OVCAR-5 ovarian, 63.1 µM. Further, the TGI is 36.3 µM with PC-3 prostate; 72.5 µM in the experiment on RPMI-8226 leukemia; 42.5 µM in the experiment with SK-MEL-28 melanoma; more than 100 µM in the experiment with SNB-19 CNS; 78.2 µM with SW-620 colon; 60.1 µM with U251 CNS.
For `Cc1ccc(C)c(NC(=O)C(Cc2c[nH]c3ccccc23)NC(=O)OCc2ccccc2)c1` (configuration not stated), the TGI with ACHN renal is more than 100 µM; in the experiment on M14 melanoma, 34.7 µM; with MCF7 breast, more than 100 µM; in the experiment on MDA-MB-231 breast, 47.4 µM; in the experiment on OVCAR-3 ovarian, more than 100 µM; with OVCAR-5 ovarian it was more than 100 µM. Also, the TGI is 28.6 µM in the experiment on PC-3 prostate; 44 µM with RPMI-8226 leukemia; more than 100 µM in the experiment with SK-MEL-28 melanoma; 27.6 µM with SNB-19 CNS; 35.5 µM in the experiment on SW-620 colon; 35.1 µM in the experiment on U251 CNS.
As for `CC1Cc2cc(O)ccc2C2[C@@H]1C1CC[C@H](O)[C@@]1(C)C[C@@H]2O[N+](=O)[O-]` (some centres not stated), the TGI was more than 100 µM in the experiment with ACHN renal; 64.1 µM with M14 melanoma; 25.3 µM in the experiment with MCF7 breast; 85.8 µM in the experiment on MDA-MB-231 breast; more than 84.1 µM with OVCAR-3 ovarian; more than 100 µM in the experiment on OVCAR-5 ovarian. The TGI with PC-3 prostate was more than 100 µM; in the experiment with RPMI-8226 leukemia it was 50.2 µM; in the experiment with SK-MEL-28 melanoma it was 81.8 µM; in the experiment on SNB-19 CNS it was 98.7 µM; with SW-620 colon, more than 100 µM; with U251 CNS, 23 µM.
In the case of `CCN(CC)c1nc(N(C)C)c2cc(OC)ccc2n1`, the TGI in the experiment on ACHN renal, in the experiment with M14 melanoma, in the experiment on MCF7 breast, with MDA-MB-231 breast, in the experiment on OVCAR-3 ovarian and in the experiment with OVCAR-5 ovarian was more than 100 µM each time. The TGI is more than 100 µM with PC-3 prostate; 61.2 µM with RPMI-8226 leukemia; more than 100 µM with SK-MEL-28 melanoma; more than 100 µM in the experiment with SNB-19 CNS; more than 100 µM with SW-620 colon; more than 100 µM with U251 CNS.
`CC(=O)OC1COC(Nn2c(=O)[nH]c3ccccc3c2=O)C(OC(C)=O)C1OC(C)=O` (configuration not stated): the TGI in the experiment on ACHN renal, in the experiment on M14 melanoma, with MCF7 breast, in the experiment on MDA-MB-231 breast, in the experiment with OVCAR-3 ovarian and with OVCAR-5 ovarian was more than 100 µM each time. Also, the TGI in the experiment on PC-3 prostate, in the experiment with RPMI-8226 leukemia, with SK-MEL-28 melanoma, in the experiment on SNB-19 CNS, in the experiment on SW-620 colon and in the experiment on U251 CNS was more than 100 µM in each case.
On to `CC(C)(C)NC1C2CCC(C)(C1O)C2(C)C` (configuration not stated), for which the TGI was 21.6 µM in the experiment on ACHN renal; more than 100 µM with M14 melanoma; 14.7 µM in the experiment on MCF7 breast; more than 100 µM with MDA-MB-231 breast; more than 100 µM in the experiment with OVCAR-3 ovarian; more than 100 µM in the experiment with OVCAR-5 ovarian. In addition, the TGI in the experiment with PC-3 prostate, with RPMI-8226 leukemia, in the experiment with SK-MEL-28 melanoma, in the experiment with SNB-19 CNS, in the experiment with SW-620 colon and with U251 CNS was more than 100 µM in each case.
Regarding `CCOP(=O)(OCC)/C(C#N)=C/c1c(C)[nH]c2ccccc12`, the TGI in the experiment on ACHN renal, in the experiment on M14 melanoma, with MCF7 breast, in the experiment on MDA-MB-231 breast, in the experiment on OVCAR-3 ovarian and with OVCAR-5 ovarian was more than 100 µM each time. The TGI with PC-3 prostate, in the experiment with RPMI-8226 leukemia, in the experiment with SK-MEL-28 melanoma, with SNB-19 CNS, in the experiment on SW-620 colon and with U251 CNS was more than 100 µM each time.
Regarding `COC(Cc1ccccc1)NC(C)=O` (configuration not stated), the TGI in the experiment with ACHN renal, in the experiment on M14 melanoma, in the experiment with MCF7 breast, in the experiment on MDA-MB-231 breast, in the experiment on OVCAR-3 ovarian and with OVCAR-5 ovarian was more than 100 µM each time. For the same compound, the TGI in the experiment on PC-3 prostate, with RPMI-8226 leukemia, with SK-MEL-28 melanoma, in the experiment with SNB-19 CNS, with SW-620 colon and with U251 CNS was more than 100 µM each time.
Consider `Cc1cc(-c2nc3cc(F)c(F)cc3s2)ccc1N`, for which the TGI with ACHN renal, in the experiment with M14 melanoma, in the experiment on MCF7 breast, in the experiment with MDA-MB-231 breast, with OVCAR-3 ovarian and with OVCAR-5 ovarian was more than 100 µM in each case. Further, the TGI in the experiment with PC-3 prostate, with RPMI-8226 leukemia, in the experiment on SK-MEL-28 melanoma, in the experiment on SNB-19 CNS, in the experiment on SW-620 colon and with U251 CNS was more than 100 µM throughout.
